According to US20240010684A1, “MASP INHIBITORY COMPOUNDS AND USES THEREOF” (BAYER AKTIENGESELLSCHAFT, priority 2020, published 2024):
Where a SMILES comes first, the peptide text is derived from it. Bridges are numbered along the chain shown (N, C = ends). Triazole bridges read from a SMILES are 1,4-linked. [ ]: non-standard residue; d: D form. ξ: configuration not given here. Oic = O=C(O)[C@@H]1C[C@@H]2CCCC[C@@H]2N1; Dap(N3) = [N-]=[N+]=NC[C@H](N)C(=O)O; Trx = NC[C@H]1CC[C@H](C(=O)O)CC1; tBuAla = CC(C)(C)C[C@H](N)C(=O)O; Pen = CC(C)(S)[C@H](N)C(=O)O; ξIle = CC[C@H](C)C(N)C(=O)O; NMeC = CN[C@@H](CS)C(=O)O; Orn = NCCC[C@H](N)C(=O)O; Pra = C#CC[C@H](N)C(=O)O; Dap = NC[C@H](N)C(=O)O; ξD = NC(CC(=O)O)C(=O)O; Ahx = NCCCCCC(=O)O

Legend:
human MASP1 = human MASP1 (Homo sapiens (Human), UniProt P48740); test: Biochemical human MASP1 assay (FRET substrate); conditions: Average IC50; recombinant human MASP1; read-out: human MASP1 IC50
Procedure, shortened: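 IC50 derived from % inhibition versus compound concentration, with fluorescence increase read at 320/420 nm after 60-120 min at 32 C. Enzyme: HEK293-secreted, His-tagged human MASP1 fragment 297-699 at 20 nM in HEPES pH 8,0 buffer with NaCl, CHAPS, glutathione; substrate ABZ-peptide-Lys(Dnp)-NH2 added as 20 μM solution.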

human MASP2 = human MASP2 (Homo sapiens (Human), UniProt O00187); test: Biochemical human MASP2 assay (FRET substrate); conditions: Average IC50; recombinant human MASP2; read-out: human MASP2 IC50
Procedure, shortened: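 IC50 came from % inhibition across compound concentrations, with fluorescence (ex 340 nm, em 490 nm) read after 60-120 min at 32 C. Substrate was a DABCYL FRET peptide, added as a 60 μM solution, cleaved by HEK293-expressed, Ni-NTA-purified mature recombinant human MASP2.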

[1] = tested on: Human C3-DEPOSITION SERUM; test: C3 deposition assay, human serum on mannan-coated plates; assay type: biochemical; conditions: Average IC50, read-out: Human C3-DEPOSITION SERUM IC50
Description: 3. C3 Deposition Assay (Human, Rat, Mouse, Dog, Pig))
The C3 deposition assay was conducted essentially as described (reference). Multiwell plates (Greiner-Nunc 384 Maxi Sorp #464718) were coated over night with Mannan from Saccharomyces cerevisiae (Sigma M7504, 10 μg/mL in 0.05 M carbonate-bicarbonate buffer, pH 9.6) at 4° C. Wells were washed three times with TBS and subsequently incubated for 2 hours with 50 μL of 1% bovine serum albumin (BSA) in Tris-buffered saline (TBS) at 37° C. in order to block non-specific binding. After this step and each of the following incubation steps wells were washed three times with C3 wash buffer (TBS; 0.05% Tween 20; 5 mM CaCl2). […] When appropriately developed the color reaction was stopped by addition of 25 μL of stop solution (Sigma S5814) and quantified on a photometer by measuring absorption at a wavelength of 450 nm. Antibodies were diluted in C3 wash buffer supplemented with 0.5% BSA.

Chain of human MASP1 (P48740 other isoform, or with tags, fused parts or gaps): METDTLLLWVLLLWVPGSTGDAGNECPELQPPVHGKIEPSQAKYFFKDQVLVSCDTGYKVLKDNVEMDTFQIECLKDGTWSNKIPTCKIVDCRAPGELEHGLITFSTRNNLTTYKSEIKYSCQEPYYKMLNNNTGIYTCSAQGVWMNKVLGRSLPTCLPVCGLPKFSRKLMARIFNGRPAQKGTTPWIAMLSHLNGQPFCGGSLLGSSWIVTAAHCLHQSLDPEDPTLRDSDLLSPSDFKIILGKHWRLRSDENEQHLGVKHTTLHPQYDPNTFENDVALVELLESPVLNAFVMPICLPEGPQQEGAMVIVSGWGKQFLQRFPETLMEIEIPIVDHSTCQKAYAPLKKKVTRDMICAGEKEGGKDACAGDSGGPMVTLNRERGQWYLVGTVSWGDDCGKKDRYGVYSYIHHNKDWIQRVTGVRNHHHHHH
Chain of human MASP2 (O00187 other isoform, or with tags, fused parts or gaps): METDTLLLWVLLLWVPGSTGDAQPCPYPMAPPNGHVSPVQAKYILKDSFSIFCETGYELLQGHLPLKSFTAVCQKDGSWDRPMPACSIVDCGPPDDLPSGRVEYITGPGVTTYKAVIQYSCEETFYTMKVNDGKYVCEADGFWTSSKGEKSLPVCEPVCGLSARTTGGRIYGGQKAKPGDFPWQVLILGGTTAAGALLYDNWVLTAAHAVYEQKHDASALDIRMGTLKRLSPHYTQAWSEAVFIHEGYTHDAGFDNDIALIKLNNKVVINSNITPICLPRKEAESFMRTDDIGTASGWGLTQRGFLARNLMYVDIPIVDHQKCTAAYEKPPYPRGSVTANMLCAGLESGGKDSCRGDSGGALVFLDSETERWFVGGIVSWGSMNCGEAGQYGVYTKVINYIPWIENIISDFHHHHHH

Row | SMILES | IC50 (human MASP1) | IC50 (human MASP2) | IC50 [1]
1 | CC[C@H](C)[C@@H]1NC(=O)CNC(=O)[C@H]2CC[C@@H](CC2)CNC(=O)CNC(=O)CC(C(N)=O)NC(=O)[C@@H]2CCCN2C(=O)[C@H]([C@@H](C)CC)NC(=O)[C@H]2NC(=O)[C@H]([C@@H](C)CC)NC(=O)[C@@H]3CCCN3C(=O)[C@@H]3CCCN3C(=O)[C@H](CC(C)(C)C)NC(=O)[C@H](CO)NC(=O)[C@H](CCCNC(=N)N)NC(=O)[C@H](CO)NC(=O)[C@H](CSSC2(C)C)NC1=O (stereo partly drawn) [Example 62, (1R,4S,10S,21S,24S,30S,33R,36S,39S,42S,45S,51S,57S,60S)-4,30,60-tri[(2S)-butan-2-yl]-39-(3-carbamimidamidopropyl)-45-(2,2-dimethylpropyl)-36,42-bis(hydroxymethyl)-63,63-dimethyl-2,5,11,15,18,25,28,31,34,37,40,43,46,52,58,61-hexadecaoxo-64,65-dithia-3,6,12,16,19,26,29,32,35,38,41,44,47,53,59,62-hexadecaazahexacyclo[31.29.4.2^21,240.0^6,100.0^47,510.0^53,57]octahexacontane-13-carboxamide] (G[Trx]GICSRS[tBuAla]PPI[Pen]IP[ξD]-NH2; disulfide 5-13; lactam N-16) | 22 nM | 540 nM | 149 nM
2 | CC[C@H](C)C1NC(=O)[C@@H]2CSSC[C@H](NC(=O)[C@H]([C@@H](C)CC)NC(=O)[C@H](C)NC(=O)[C@@H](N)CCCNC(=O)C[C@@H](C(N)=O)NC(=O)[C@@H]3CCCN3C1=O)C(=O)N[C@@H](CO)C(=O)N[C@@H](CCCNC(=N)N)C(=O)N[C@@H](CO)C(=O)N[C@@H](CC(C)(C)C)C(=O)N1CCC[C@H]1C(=O)N1CCC[C@H]1C(=O)N[C@@H]([C@@H](C)CC)C(=O)N2C (stereo partly shown) [Example 44] (H-[Orn]AICSRS[tBuAla]PPI[NMeC][ξIle]PD-NH2; lactam 1-15; disulfide 4-12) | 4.7 nM | 230 nM | 23.7 nM
3 | CC[C@H](C)[C@@H]1NC(=O)[C@H](CN)NC(=O)[C@@H]2CCCN2C(=O)[C@H]([C@@H](C)CC)NC(=O)[C@H]2NC(=O)[C@H]([C@@H](C)CC)NC(=O)[C@@H]3C[C@@H]4CCCC[C@@H]4N3C(=O)[C@H]3CCCN3C(=O)[C@H](CC(C)C)NC(=O)[C@H](CO)NC(=O)[C@H](CCCNC(=N)N)NC(=O)[C@H](CO)NC(=O)[C@H](CSSC2(C)C)NC1=O [Example 87] (cyclo(CSRSL[dP][Oic]I[Pen]IP[Dap]I); disulfide 1-9) | 46 nM | 700 nM | 78.6 nM
4 | CC[C@H](C)[C@@H]1NC(=O)[C@@H](N)CNC(=O)[C@@H]2CCCN2C(=O)[C@H]([C@@H](C)CC)NC(=O)[C@H]2NC(=O)[C@H]([C@@H](C)CC)NC(=O)[C@@H]3C[C@@H]4CCCC[C@@H]4N3C(=O)[C@@H]3CCCN3C(=O)[C@H](CC(C)C)NC(=O)[C@H](CO)NC(=O)[C@H](CCCNC(=N)N)NC(=O)[C@H](CO)NC(=O)[C@H](CSSC2(C)C)NC1=O [Example 85] (H-[Dap]ICSRSLP[Oic]I[Pen]IP; lactam 1-C; disulfide 3-11) | 1000 nM | 1000 nM | 3130 nM
5 | CC[C@H](C)[C@@H]1NC(=O)CNC(=O)CCCCCNC(=O)C[C@@H](C(N)=O)NC(=O)[C@@H]2CCCN2C(=O)[C@H]([C@@H](C)CC)NC(=O)[C@H]2NC(=O)[C@H]([C@@H](C)CC)NC(=O)[C@@H]3C[C@@H]4CCCC[C@@H]4N3C(=O)[C@@H]3CCCN3C(=O)[C@H](CC(C)C)NC(=O)[C@H](CO)NC(=O)[C@H](CCCNC(=N)N)NC(=O)[C@H](CO)NC(=O)[C@H](CSSC2(C)C)NC1=O [Example 49] ([Ahx]GICSRSLP[Oic]I[Pen]IPD-NH2; disulfide 4-12; lactam N-15) | 19 nM | 140 nM | 
6 | CC[C@H](C)[C@@H]1NC(=O)[C@@H](C)NC(=O)CNC(=O)CCCCCNC(=O)CC[C@@H](C(N)=O)NC(=O)[C@@H]2CCCN2C(=O)[C@H]([C@@H](C)CC)NC(=O)[C@H]2NC(=O)[C@H]([C@@H](C)CC)NC(=O)[C@@H]3C[C@@H]4CCCC[C@@H]4N3C(=O)[C@@H]3CCCN3C(=O)[C@H](CC(C)C)NC(=O)[C@H](CO)NC(=O)[C@H](CCCNC(=N)N)NC(=O)[C@H](CO)NC(=O)[C@H](CSSC2(C)C)NC1=O [Example 84] ([Ahx]G[dA]ICSRSLP[Oic]I[Pen]IPE-NH2; disulfide 5-13; lactam N-16) | 15 nM | 87 nM | 
7 | CC[C@H](C)[C@@H]1NC(=O)[C@H](C)NC(=O)CNC(=O)CCCCCNC(=O)CC[C@@H](C(N)=O)NC(=O)[C@@H]2CCCN2C(=O)[C@H]([C@@H](C)CC)NC(=O)[C@H]2NC(=O)[C@H]([C@@H](C)CC)NC(=O)[C@@H]3C[C@@H]4CCCC[C@@H]4N3C(=O)[C@@H]3CCCN3C(=O)[C@H](CC(C)C)NC(=O)[C@H](CO)NC(=O)[C@H](CCCNC(=N)N)NC(=O)[C@H](CO)NC(=O)[C@H](CSSC2(C)C)NC1=O [Example 82] ([Ahx]GAICSRSLP[Oic]I[Pen]IPE-NH2; disulfide 5-13; lactam N-16) | 69 nM | 700 nM | 

Continued, values first:

Row | IC50 (human MASP1) | IC50 (human MASP2) | IC50 [1] | SMILES
8 | 56 nM | 89 nM | 228 nM | CC[C@H](C)[C@@H]1NC(=O)[C@H](C)NC(=O)CCCCCNC(=O)[C@H](CC(=O)O)NC(=O)[C@@H]2CCCN2C(=O)[C@H]([C@@H](C)CC)NC(=O)[C@@H]2CSSC[C@H](NC1=O)C(=O)N[C@@H](CO)C(=O)N[C@@H](CCCNC(=N)N)C(=O)N[C@@H](CO)C(=O)N[C@@H](CC(C)(C)C)C(=O)N1CCC[C@H]1C(=O)N1CCC[C@H]1C(=O)N[C@@H]([C@@H](C)CC)C(=O)N2 [Example 46] (cyclo(AICSRS[tBuAla]PPICIPD[Ahx]); disulfide 3-11)
9 | 8.6 nM | 68 nM | 84.6 nM | CC[C@H](C)[C@@H]1NC(=O)CNC(=O)CNC(=O)[C@H](C)NC(=O)[C@H](CC(=O)O)NC(=O)[C@@H]2CCCN2C(=O)[C@H]([C@@H](C)CC)NC(=O)[C@H]2NC(=O)[C@H]([C@@H](C)CC)NC(=O)[C@@H]3CCCN3C(=O)[C@@H]3CCCN3C(=O)[C@H](CC(C)(C)C)NC(=O)[C@H](CO)NC(=O)[C@H](CCCNC(=N)N)NC(=O)[C@H](CO)NC(=O)[C@H](CSSC2(C)C)NC1=O [Example 29] (cyclo(AGGICSRS[tBuAla]PPI[Pen]IPD); disulfide 5-13)
10 | 180 nM | 20 nM | 121 nM | CC[C@H](C)[C@@H]1NC(=O)CNC(=O)[C@H](CN)NC(=O)[C@H](CN)NC(=O)[C@H](CC(=O)O)NC(=O)[C@@H]2CCCN2C(=O)[C@H]([C@@H](C)CC)NC(=O)[C@@H]2CSSC[C@H](NC1=O)C(=O)N[C@@H](CO)C(=O)N[C@@H](CCCNC(=N)N)C(=O)N[C@@H](CO)C(=O)N[C@@H](CC(C)C)C(=O)N1CCC[C@H]1C(=O)N1CCC[C@H]1C(=O)N[C@@H]([C@@H](C)CC)C(=O)N2 [Example 23] (cyclo(CIPD[Dap][Dap]GICSRSLPPI); disulfide 1-9)
11 | 18 nM | 230 nM |  | CC[C@H](C)[C@@H]1NC(=O)[C@H](C)NC(=O)CNC(=O)[C@@H](N)Cn2cc(nn2)C[C@@H](C(N)=O)NC(=O)[C@@H]2CCCN2C(=O)[C@H]([C@@H](C)CC)NC(=O)[C@@H]2CSSC[C@H](NC1=O)C(=O)N[C@@H](CO)C(=O)N[C@@H](CCCNC(=N)N)C(=O)N[C@@H](CO)C(=O)N[C@@H](CC(C)(C)C)C(=O)N1CCC[C@H]1C(=O)N1CCC[C@H]1C(=O)N[C@@H]([C@@H](C)CC)C(=O)N2 [Example 81] (H-[Dap(N3)]GAICSRS[tBuAla]PPICIP[Pra]-NH2; triazole 1-16; disulfide 5-13)
12 | 170 nM | 120 nM |  | CC[C@H](C)[C@@H]1NC(=O)CNC(=O)[C@H](CO)NC(=O)CNC(=O)[C@H](CO)NC(=O)[C@H](CC(=O)O)NC(=O)[C@@H]2CCCN2C(=O)[C@H]([C@@H](C)CC)NC(=O)[C@@H]2CSSC[C@H](NC1=O)C(=O)N[C@@H](CO)C(=O)N[C@@H](CCCNC(=N)N)C(=O)N[C@@H](CO)C(=O)N[C@@H](CC(C)C)C(=O)N1CCC[C@H]1C(=O)N1CCC[C@H]1C(=O)N[C@@H]([C@@H](C)CC)C(=O)N2 [Example 21] (cyclo(CIPDSGSGICSRSLPPI); disulfide 1-10)
